The text below walks through data of patent US20090005395A1 (Solvay Pharmaceuticals, B.V., priority 2007, published 2009).

For assay [1], the system named is PDE-IV. As to the kind of experiment: In vitro inhibition of phosphodiesterases (CEREP): PDE-IV. The settings on record: human U-937 monocytes.
Assay [2] concerns the target T1, PDE-VI (Bos taurus, UniProt P11541+P23439).
T1 sequence (P11541 2-856 limits assumed): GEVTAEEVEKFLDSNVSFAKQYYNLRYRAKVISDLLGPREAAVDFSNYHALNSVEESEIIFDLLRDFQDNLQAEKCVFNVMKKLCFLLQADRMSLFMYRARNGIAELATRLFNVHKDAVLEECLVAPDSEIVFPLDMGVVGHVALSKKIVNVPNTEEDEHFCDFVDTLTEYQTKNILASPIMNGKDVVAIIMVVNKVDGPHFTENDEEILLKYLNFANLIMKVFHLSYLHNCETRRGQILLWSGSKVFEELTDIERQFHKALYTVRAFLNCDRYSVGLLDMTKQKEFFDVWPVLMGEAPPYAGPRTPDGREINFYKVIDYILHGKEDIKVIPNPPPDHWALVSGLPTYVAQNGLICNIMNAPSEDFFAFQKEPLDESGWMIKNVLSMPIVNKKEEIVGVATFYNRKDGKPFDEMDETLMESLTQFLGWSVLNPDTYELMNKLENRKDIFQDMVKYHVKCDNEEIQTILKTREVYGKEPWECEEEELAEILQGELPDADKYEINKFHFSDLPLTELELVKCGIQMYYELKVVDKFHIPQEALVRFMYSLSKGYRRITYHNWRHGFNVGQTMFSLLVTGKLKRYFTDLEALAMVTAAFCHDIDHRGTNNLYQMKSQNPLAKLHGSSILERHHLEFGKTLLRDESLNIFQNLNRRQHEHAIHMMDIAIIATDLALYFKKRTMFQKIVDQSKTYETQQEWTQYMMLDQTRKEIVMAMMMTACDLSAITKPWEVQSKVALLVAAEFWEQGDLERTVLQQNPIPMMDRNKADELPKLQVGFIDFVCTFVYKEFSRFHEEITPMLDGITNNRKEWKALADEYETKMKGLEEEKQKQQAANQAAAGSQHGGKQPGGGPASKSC
T1 sequence (P23439 2-850 limits assumed): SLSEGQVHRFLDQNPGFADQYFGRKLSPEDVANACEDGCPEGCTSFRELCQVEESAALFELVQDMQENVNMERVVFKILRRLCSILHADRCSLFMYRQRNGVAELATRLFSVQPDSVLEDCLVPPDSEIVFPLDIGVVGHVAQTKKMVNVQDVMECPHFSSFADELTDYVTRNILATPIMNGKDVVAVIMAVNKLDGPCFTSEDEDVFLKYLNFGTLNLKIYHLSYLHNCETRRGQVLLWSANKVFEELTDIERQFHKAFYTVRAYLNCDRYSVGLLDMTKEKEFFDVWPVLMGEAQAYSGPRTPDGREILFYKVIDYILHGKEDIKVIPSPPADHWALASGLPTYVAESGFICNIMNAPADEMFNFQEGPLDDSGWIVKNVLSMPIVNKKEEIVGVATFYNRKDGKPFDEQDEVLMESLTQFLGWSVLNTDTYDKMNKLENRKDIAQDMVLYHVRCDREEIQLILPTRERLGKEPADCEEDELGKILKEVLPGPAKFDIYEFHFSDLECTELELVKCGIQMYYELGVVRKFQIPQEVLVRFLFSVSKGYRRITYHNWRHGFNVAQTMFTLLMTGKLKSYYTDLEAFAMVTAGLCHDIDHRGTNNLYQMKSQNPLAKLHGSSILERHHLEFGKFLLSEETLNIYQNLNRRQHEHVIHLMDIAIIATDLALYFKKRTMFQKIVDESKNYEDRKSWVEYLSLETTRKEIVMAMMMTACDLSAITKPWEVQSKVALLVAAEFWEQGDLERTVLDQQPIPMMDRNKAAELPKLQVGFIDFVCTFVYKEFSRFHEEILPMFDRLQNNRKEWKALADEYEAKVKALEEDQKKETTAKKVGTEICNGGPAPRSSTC
In words: In vitro inhibition of phosphodiesterases (CEREP): PDE-VI.

A word on the IC50: it is the concentration that gives 50% inhibition. A low value points to inhibition by little substance.

Take `CCCc1nn(C)c2c(=O)[nH]c(-c3cc(S(=O)(=O)N4CC[N+](C)([O-])CC4)ccc3OCC)nc12` [Sildenafil-N-oxide, 1-[[3-(6,7-dihydro-1-methyl-7-oxo-3-propyl-1H-pyrazolo[4,3-d]pyrimidin-5-yl)-4-ethoxyphenyl]sulfonyl]-4-methyl-4-oxido-piperazine]: the “pIC50 PDE-IV” value in assay [1] is given as below 5.0. The same molecule had a half-maximal inhibitory concentration (IC50) in assay [2] of 1000 nM.
